Data: US10729749B2, “Neurodegenerative disorders” (priority 2014, dated 2020)
Ends that are not written are not given here.

Assays:
Format in all cases: cell-based
PC12 cells [1] = test: Acetylcholinesterase activity assay (AChE release from PC12 cells, Ellman reagent); conditions: % AChE release compared to untreated control
Method: AChE activity was measured using the Ellman reagent that measures the presence of thiol groups as a result of AChE activity. Cells were plated the day before the experiment as for the cell viability assay. […] The Ellman reagent was prepared as a mixture of the 3 solutions in a ratio 33(A):3(B):4(C). Absorbance measurements were taken at regular intervals (3, 10, 30 and 60 mins) across experiments at 405 nm.

[2] = Cell viability assay (Cell Counting Kit-8); conditions: % PC12 cell viability compared to untreated control;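 also: PC12 cells in 96-well plates, WST-8 turned into formazan by cellular dehydrogenases, absorbance read at 450 nm after 2 h with the reagent, signal proportional to living cell number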
Text: A Cell Counting Kit-8 (CCK-8) was used as an improvement of the SRB technique used before. By utilizing the highly water-soluble tetrazolium salt WST-8, CCK-8 produces a water-soluble formazan dye upon reduction in the presence of an electron carrier. WST-8 is reduced by dehydrogenases in cells to give a yellow colored product (formazan), which is soluble in the tissue culture medium. The amount of the formazan dye generated by the activity of dehydrogenases in cells is directly proportional to the number of living cells. PC12 cells are plated in 200 μl of complete growth medium the day before the experiment in 96 well plates. […] Subsequently, 100 μl of growth medium is removed and 10 μl of CCK-8 (Cell Counting Kit-8) solution is added. The plate is incubated for 2 hours in the incubator and then placed in the absorbance plate reader. The absorbance must be measured at 450 nm.

PC12 cells [3] = test: Calcium fluorometry (Fluo-8, acetylcholine-induced calcium influx); set-up: Calcium: scale not given here; conditions: for Calcium: calcium influx value, control based on acetylcholine alone; for dose-dependent effect on calcium potentiation against T30: dose-dependent experiments, FIGS. 8 and 9
Text: A final criterion used to determine active peptides is the amount of calcium influx into PC12 cells caused by the peptide. The calcium influx value can be calculated as described in the methods section. The calcium value corresponds to the result from the experiment when applying T30 or Aβ alone or in conjunction with the small peptides. The control value for these experiments is based on the calcium influx induced by acetylcholine alone. Preferably, the peptide, derivative or analogue thereof has a calcium influx value of less than 120, and more preferably a value of 97-120.
PC12 cells are plated in 200 μl of complete growth medium the day before the experiment in 96 well plates. On the day of the experiment, the Fluo-8 solution (Abcam) is prepared (as per provider protocol). Subsequently, 100 μl of growth medium is removed and 100 μl of Fluo-8 solution is added. Treatments with T30 or Aβ in conjunction with NBP-14 or small peptides are added and incubated for 30 minutes in the incubator and 30 minutes room temperature.
After 1 hour, the plate is placed in the fluorescence plate reader (Fluostar). Before reading the fluorescence, acetylcholine (ACh) 100 μM is prepared and placed in the Fluostar injector. For each well, the reading will be formed by a basal fluorescence followed by acetylcholine injection that will induce an increase of calcium via nicotinic receptors. The effects of the peptides are then evaluated.

PC12 cells [4] = test: Value coefficient (AChE release vs PC12 cell viability) and filter selection; conditions: for Value AChE/Viability: 1.0 to 1.1 = protective, control = 1; for neuroprotective agent against T30 when all four filters are taken into consideration / neuroprotective agent against Aβ when all four filters are taken into consideration: filters: value coefficient, in silico binding, calcium influx, peptide size
Text: AChE release vs PC12 cell viability (for which there is a significant negative correlation); • 2. In silico binding to the allosteric site of the α7 nicotinic-receptor; • 3. Calcium influx into PC12 cells; and • 4. Peptide size.

[5] = T30 5 μM + small peptide 0.5 μM

Substance | AChE (PC12 cells [1]; [5]) [%] | viability [2, 5] [%] | Calcium (PC12 cells [3]; T30 + small peptide) | Value AChE/Viability (PC12 cells [4]; [5]) | neuroprotective agent against T30 when all four filters are taken into consideration (PC12 cells [4]) | AChE (PC12 cells [1]; Aβ 5 μM + small peptide 0.5 μM) [%] | viability ([2]; Aβ 5 μM + small peptide 0.5 μM) [%] | Calcium (PC12 cells [3]; Aβ + small peptide) | Value AChE/Viability (PC12 cells [4]; Aβ 5 μM + small peptide 0.5 μM) | dose-dependent effect on calcium potentiation against T30 (PC12 cells [3]) | neuroprotective agent against Aβ when all four filters are taken into consideration (PC12 cells [4])
AEFHRWSS [NBP-804] | 107.69 | 108 | 106.7 | 1 | neuroprotective agents against T30 | – | – | – | – | – | –
AEFHRWSSYMV [NBP-1104] | 102.36 | 111 | 119.82 | 1 | – | – | – | – | – | – | –
EFHRWSS [NBP-705, EFHRWSS] | 94.07 | 91 | 111.98 | 1.03 | neuroprotective agents against T30 | – | – | – | – | – | –
EFHRWSSYM [NBP-905] | – | – | – | – | – | 106.42 | 97.2 | 194.22 | 1.09 | – | –
EFHRWSSYMVHW [NBP-1205] | 95.79 | 89.4 | 132.71 | 1.07 | – | – | – | – | – | – | –
EFHRWSSYMVHWKA [NBP-1405] | 91.57 | 83.9 | 100.59 | 1.09 | – | – | – | – | – | – | –
FHRWSS [NBP-606] | 107.88 | 103 | 131.85 | 1.05 | – | – | – | – | – | – | –
FHRWSSYMVHWK [NBP-1206] | – | – | – | – | – | 96.92 | 93.6 | 127.27 | 1.04 | – | –
FHRWSSYMVHWKAE [NBP-1406] | 92.78 | 86.6 | 101.06 | 1.07 | – | – | – | – | – | – | –
HRWSSY [NBP-607] | – | – | – | – | – | 97.53 | 94.9 | 168.97 | 1.03 | – | –
HRWSSYM [NBP-707] | 98.35 | 98.5 | 120.17 | 1 | – | – | – | – | – | – | –
HRWSSYMVHWK [NBP-1107] | 93.13 | 93.1 | 95.43 | 1 | – | – | – | – | – | – | –
HRWSSYMVHWKA [NBP-1207] | – | – | – | – | – | 94.30 | 87.4 | 261.22 | 1.08 | – | –
HRWSSYMVHWKAE [NBP-1307] | – | – | – | – | – | 94.29 | 92.5 | 218.25 | 1.02 | – | –
HRWSSYMVHWKAEF [NBP-1407] | 94.49 | 90.5 | 111.71 | 1.04 | – | – | – | – | – | – | –
HWKAEF [NBP-601, HWKAEF] | 100.99 | 93.2 | 118.37 | 1.08 | neuroprotective agents against T30 | – | – | – | – | protect against T30 effects | –
HWKAEFHR [NBP-801] | – | – | – | – | – | 108.63 | 102 | 168.66 | 1.06 | – | –
HWKAEFHRWSS [NBP-1101] | 91.9 | 91.9 | 86.58 | 1 | – | – | – | – | – | – | –
HWKAEFHRWSSY [NBP-1201] | – | – | – | – | – | 94.84 | 93.1 | 114.35 | 1.02 | – | –
KAEFH [NBP-503] | – | – | – | – | – | 117.63 | 110 | 195.67 | 1.07 | – | –
KAEFHRWSSYMV [NBP-1203] | – | – | – | – | – | 99.63 | 95.5 | 192.38 | 1.04 | – | –

Substance | AChE (PC12 cells [1]; [5]) [%] | viability [2, 5] [%] | Calcium (PC12 cells [3]; T30 + small peptide) | Value AChE/Viability (PC12 cells [4]; [5]) | neuroprotective agent against T30 when all four filters are taken into consideration (PC12 cells [4]) | AChE (PC12 cells [1]; Aβ 5 μM + small peptide 0.5 μM) [%] | viability ([2]; Aβ 5 μM + small peptide 0.5 μM) [%] | Calcium (PC12 cells [3]; Aβ + small peptide) | Value AChE/Viability (PC12 cells [4]; Aβ 5 μM + small peptide 0.5 μM) | dose-dependent effect on calcium potentiation against T30 (PC12 cells [3]) | neuroprotective agent against Aβ when all four filters are taken into consideration (PC12 cells [4])
KAEFHRWSSYMVH [NBP-1303] | – | – | – | – | – | 96.73 | 91.2 | 106.33 | 1.06 | – | –
MVHWKA [NBP-613, MVHWKA] | 103.45 | 103 | 102.29 | 1 | neuroprotective agents against T30 | – | – | – | – | protect against T30 effects | –
MVHWKAEFHR [NBP-1013] | 91.79 | 85.3 | 181.12 | 1.08 | – | – | – | – | – | – | –
MVHWKAEFHRWS [NBP-1213] | – | – | – | – | – | 93.73 | 90.8 | 146.97 | 1.03 | – | –
MVHWKAEFHRWSS [NBP-1313] | 93.64 | 89 | 118.94 | 1.05 | – | – | – | – | – | – | –
MVHWKAEFHRWSSY [NBP-1413] | – | – | – | – | – | 99.85 | 95.2 | 125.28 | 1.05 | – | –
RWSSY [NBP-508] | – | – | – | – | – | 106.06 | 97.6 | 120.72 | 1.09 | – | –
RWSSYMV [NBP-708, RWSSYMV] | 97.79 | 97.8 | 97.04 | 1 | neuroprotective agents against T30 | – | – | – | – | – | –
RWSSYMVHWKA [NBP-1108] | – | – | – | – | – | 82.74 | 77.7 | 392.11 | 1.06 | – | –
RWSSYMVHWKAEFH [NBP-1408] | 93.64 | 93.6 | 80.25 | 1 | – | – | – | – | – | – | –
SSYMV [NBP-510] | – | – | – | – | – | 104.25 | 101 | 167.56 | 1.03 | – | –
SSYMVHW [NBP-710, SSYMVHW] | – | – | – | – | – | 108.85 | 109 | 114.33 | 1 | – | agents against Aβ
SSYMVHWK [NBP-810] | – | – | – | – | – | 96.22 | 95.3 | 156.05 | 1.01 | – | –
SSYMVHWKAEFH [NBP-1210] | – | – | – | – | – | 98.18 | 97.5 | 127.83 | 1.01 | – | –
SSYMVHWKAEFHRW [NBP-1410] | 93.51 | 93.5 | 120.09 | 1 | – | 93.51 | 93.5 | 160.54 | 1 | – | –
SYMVHW [NBP-611, SYMVHW] | – | – | – | – | – | 88.60 | 82.2 | 114.39 | 1.08 | – | agents against Aβ
SYMVHWK [NBP-711] | – | – | – | – | – | 108.57 | 106 | 148.17 | 1.02 | – | –
SYMVHWKAEF [NBP-1011] | – | – | – | – | – | 84.13 | 81.7 | 161.87 | 1.03 | – | –
SYMVHWKAEFHRW [NBP-1311] | – | – | – | – | – | 93.51 | 86.1 | 137.63 | 1.09 | – | –
VHWKAE [NBP-614] | – | – | – | – | – | 85.05 | 77.7 | 124.34 | 1.09 | – | –
VHWKAEFHRWSS [NBP-1214] | – | – | – | – | – | 89.28 | 85.5 | 217.64 | 1.04 | – | –
